Literature values in patent US20090170816A1, “COMBINATION COMPRISING SQUALENE, A PHOSPHOLIPID AND AN OMEGA 3 FATTY ACID FOR THE TREATMENT OF CANCER” (FARMALEIS S.L., priority 2005, published 2009).

Columns and labels:
Colon cancer = conditions: Table 1, source Carcinogenesis vol. 19 no. 2 pp. 287-290, 1998
[1] = system: chemically-induced lung tumours; conditions: compared to animals not receiving squalene

For `CC(C)=CCC/C(C)=C/CC/C(C)=C/CC/C=C(\C)CC/C=C(\C)CCC=C(C)C` [Squalene], the Survival percentage (Colon cancer) is given as 50% ^(1), the incidence of tumours [1] is given as “lower incidence of tumours” and the multiplicity of tumours [1] is given as “lower multiplicity”. The volume of tumours [1] was “smaller volume”.
